Measured values reported in BindingDB's records for doi:10.1016/j.bmcl.2012.06.023 (University of Siena, 2012).
pIC50: −log10 of the molar value.

Molecular target: Subtilisin-like protease 1 (Plasmodium falciparum, UniProt O61142)
Experiment: Inhibition of Plasmodium falciparum SUB1 by fluorimetric assay

Subtilisin-like protease 1, sequence (O61142 220-690 limits assumed): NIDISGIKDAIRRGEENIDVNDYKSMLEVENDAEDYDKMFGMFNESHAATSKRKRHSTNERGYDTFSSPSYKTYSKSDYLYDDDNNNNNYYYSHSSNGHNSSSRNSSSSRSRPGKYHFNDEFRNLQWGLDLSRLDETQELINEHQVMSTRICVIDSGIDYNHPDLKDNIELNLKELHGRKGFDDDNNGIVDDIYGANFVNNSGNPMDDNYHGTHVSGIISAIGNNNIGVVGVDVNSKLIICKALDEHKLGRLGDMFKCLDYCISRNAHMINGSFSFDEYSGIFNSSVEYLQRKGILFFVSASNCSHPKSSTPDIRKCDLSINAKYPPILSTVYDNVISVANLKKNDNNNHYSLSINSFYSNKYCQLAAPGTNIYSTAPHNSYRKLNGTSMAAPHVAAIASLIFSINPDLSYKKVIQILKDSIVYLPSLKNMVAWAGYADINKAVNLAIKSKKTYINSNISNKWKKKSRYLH

Row | SMILES | pIC50
1 | O=[N+]([O-])c1ccc(CN=Nc2nc3ccccc3[nH]2)cc1 | < 4.30
2 | O=[N+]([O-])c1ccc(CN=Nc2c3c(nc4ccccc24)CCCC3)cc1 | < 4.30
3 | Cc1cc(N=NCc2ccccc2[N+](=O)[O-])c2cc3c(cc2n1)OCO3 | 4.40
4 | Cc1cc(N=NCc2ccc(C#N)cc2)c2cc3c(cc2n1)OCO3 | 4.40
5 | Cc1cc(N=NCc2ccc([N+](=O)[O-])cc2)c2cc3c(cc2n1)OCO3 | 4.70
6 | COc1ccc2nc(C)cc(N=NCc3ccc([N+](=O)[O-])cc3)c2c1 [TCMDC-123970] | 4.70
